These results are taken from patent US9403843B2, “Cysteine protease inhibitors and uses thereof” (The Trustees of Columbia University in the City of New York, priority 2012, dated 2016).

Molecules are shown by their SMILES. pIC50, pKi: −log10 of the molar value. Like-named read-outs stand apart in the source and are kept apart here.

One experiment has as its system Cal1cat vs CathB. Put plainly: Competition assay for Cal1 vs CathB using the biotinylated epoxide probe. Format: binding, rat. The following applies: individually and in combination. The protocol:
Anti-biotin western blotting of Cal1cat (Lane 6) or CathB (Lane 7) after incubation with 27 show the expected immunoreactivity of the covalently modified proteins. […] Densitometric analysis, using means from triplicate immunoblots, was used to estimate the modification of each protein by 27 in the presence of inhibitors relative to control (Lane 1: ratio=1.0).
Cal1cat was used in place of the full length enzyme to avoid autocatalysis.
Cal1cat and CathB were pre-treated with inhibitors for 10 min, followed by a 20 min incubation with the biotinylated epoxide, 27, as illustrated in FIG. 4. […] A more quantitative estimate of selectivity was achieved by comparison of band intensities.
The appropriate inhibitor (5 μM) was pre-incubated in a mixture containing Cal1cat (2 μM), CathB (2 μM), TCEP (1 mM), and Ca^2+ (30 μM) for 10 min at 37° C. […] (5 μM) was then added and the mixture incubated an additional 20 min. The reaction was quenched with EDTA (10 μM) and samples were ran using 4-16% SDS PAGE gel, subsequently transferred to PVDF membrane and visualized by Pierce ECL (Enhanced chemiluminescent) western blotting substrate, intensity of each blot was calculated using densitometry software. Relative inhibition of each enzyme was calculated with respect to enzyme activity in the absence of inhibitor. Inhibitor preference to Cal1cat with respect to CathB, was calculated by dividing relative Cal1cat inhibition with relative CathB inhibition of that particular inhibitor.

Experiment [1] deals with T1, full-length human Cal1 (Homo sapiens (Human), UniProt P07384). The experiment can be described thus: Calpain inhibition FRET assay. Format: biochemical. The note with it: Table 3, 20 min incubation, FRET substrate.
T1 sequence (P07384 whole entry): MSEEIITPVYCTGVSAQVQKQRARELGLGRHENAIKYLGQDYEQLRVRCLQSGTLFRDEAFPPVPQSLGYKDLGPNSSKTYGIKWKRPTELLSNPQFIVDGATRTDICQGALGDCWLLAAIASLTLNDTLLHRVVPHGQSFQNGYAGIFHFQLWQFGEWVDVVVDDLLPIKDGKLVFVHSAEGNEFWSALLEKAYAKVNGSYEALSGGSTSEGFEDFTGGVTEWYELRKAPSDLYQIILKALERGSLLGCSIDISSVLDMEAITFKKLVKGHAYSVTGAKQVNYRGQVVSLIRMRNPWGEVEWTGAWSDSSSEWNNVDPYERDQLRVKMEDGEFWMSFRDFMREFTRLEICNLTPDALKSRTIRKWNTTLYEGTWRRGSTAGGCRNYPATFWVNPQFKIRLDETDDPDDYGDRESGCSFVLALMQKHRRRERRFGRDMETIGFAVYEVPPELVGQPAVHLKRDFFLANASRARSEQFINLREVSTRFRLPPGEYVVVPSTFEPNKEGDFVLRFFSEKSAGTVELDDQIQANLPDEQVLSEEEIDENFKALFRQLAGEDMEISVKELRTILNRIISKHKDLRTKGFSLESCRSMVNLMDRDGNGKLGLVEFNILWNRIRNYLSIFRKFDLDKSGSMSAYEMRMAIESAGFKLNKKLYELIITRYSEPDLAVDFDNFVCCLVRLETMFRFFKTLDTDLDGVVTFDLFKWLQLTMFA
T1 sequence (P04632 whole entry partner): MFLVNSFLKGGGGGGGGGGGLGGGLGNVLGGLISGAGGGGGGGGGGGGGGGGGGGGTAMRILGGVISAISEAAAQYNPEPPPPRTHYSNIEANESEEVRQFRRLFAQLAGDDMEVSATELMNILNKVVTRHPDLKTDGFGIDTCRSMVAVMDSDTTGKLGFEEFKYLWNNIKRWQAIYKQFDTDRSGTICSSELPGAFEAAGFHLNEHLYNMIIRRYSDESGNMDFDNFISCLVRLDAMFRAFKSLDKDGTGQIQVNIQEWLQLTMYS
Experiment [2] has as its target T1, full-length human Cal1. Put plainly: Calpain inhibition FRET assay. The format is biochemical. The note with it: for pIC50: Table 2, approximate IC50, read-out: Cal I IC50. Here is the method: Calpain activity was measured using full-length human Cal1 in the presence of a FRET substrate. IC50 values were approximated by co-incubation of varying concentrations of the appropriate inhibitor (10, 100, 500, 1000 nM) in the presence of the FRET substrate (DABCYL)TPLK-SPPSPR-(EDANS) (SEQ ID NO: 5) and activation buffer. […] A peptide inhibitor, Z-LLY-FMK (SEQ ID NO: 6), was used as a positive control.
The Calbiochem InnoZyme activity kit was used for measuring the inhibition effect inhibitors on human erythrocyte calpain 1 activity. […] 20 μM of the FRET substrate, 10 nM of native Cal1, and 20 μM TCEP (reducing agent) were added to the reaction mixture containing assay buffer (Tris [10 mM], NaCl [100 mM], pH 7.4). Cal1 was activated by the addition of 10 μM calcium. Cleavage of the scissile bond amide bond, K-S, releases the fluorophore (EDANS) from the internal quenching molecule (DABCYL), resulting in an increase in fluorescence measured at 320 nm excitation and 480 nm emission wave lengths for 30 min. Each inhibitor was added to the reaction mixture at varying concentrations (10 nM, 100 nM, 1 μM, and 10 μM) to detect inhibition of Cal1 and reduction in fluorescence was measured by 96 well-plate reader. Approximate IC50 values of each compound were generated using linear regression within Graphpad Prism Software.

The target of experiment [3] is Full length porcine calpain (Sus scrofa (Pig), UniProt P35750). Put plainly: Calpain inhibition kinetics studies (Suc-LLVY-AMC substrate). The format is biochemical. The source says: (§1) Papain is representative of a family of typically lysosomal or secreted cysteine proteases, including the human cathepsins (B, C, F, H, K, L1-2, O, S, W, Z). […] Several methods have been reported in the literature for detailed kinetic analysis of the irreversible inhibition of cysteine proteases, including Cal1. […] (SEQ ID NO: 8). Using this substrate, kinetic parameters were derived using the method of Davies and co-workers, whereby “progress curves” were initially obtained measuring product formation as a function of time and fitted to y=P∞*(1−e^(−k*x)) (FIG. 7) (Cuerrier, D. et al., J Biol Chem 2007, 282, 9600-11; herein incorporated by reference in its entirety). […] Kinetic parameters (ki, KI, ki/KI) were obtained from double reciprocal plots (FIG. 7).
Sequence of Full length porcine calpain (P35750 whole entry): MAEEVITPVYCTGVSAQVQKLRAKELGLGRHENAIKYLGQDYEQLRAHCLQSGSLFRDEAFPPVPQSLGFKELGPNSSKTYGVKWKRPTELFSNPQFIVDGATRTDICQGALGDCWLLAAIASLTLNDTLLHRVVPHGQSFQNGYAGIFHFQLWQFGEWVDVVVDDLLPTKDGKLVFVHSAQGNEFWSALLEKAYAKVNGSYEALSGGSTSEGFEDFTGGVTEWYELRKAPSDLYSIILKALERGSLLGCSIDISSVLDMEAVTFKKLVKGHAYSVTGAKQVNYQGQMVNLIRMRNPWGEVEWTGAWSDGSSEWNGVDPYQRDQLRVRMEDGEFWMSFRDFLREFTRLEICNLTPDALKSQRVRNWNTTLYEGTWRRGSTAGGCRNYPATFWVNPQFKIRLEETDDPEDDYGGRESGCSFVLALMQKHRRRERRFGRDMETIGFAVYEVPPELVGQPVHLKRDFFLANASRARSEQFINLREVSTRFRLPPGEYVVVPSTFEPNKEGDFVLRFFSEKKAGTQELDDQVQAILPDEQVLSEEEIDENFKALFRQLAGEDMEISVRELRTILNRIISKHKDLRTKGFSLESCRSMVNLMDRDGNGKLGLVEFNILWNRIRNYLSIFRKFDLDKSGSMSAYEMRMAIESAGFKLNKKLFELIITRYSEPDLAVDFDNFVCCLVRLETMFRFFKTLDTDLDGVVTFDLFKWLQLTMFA
Sequence of Full length porcine calpain (P04574 whole entry partner): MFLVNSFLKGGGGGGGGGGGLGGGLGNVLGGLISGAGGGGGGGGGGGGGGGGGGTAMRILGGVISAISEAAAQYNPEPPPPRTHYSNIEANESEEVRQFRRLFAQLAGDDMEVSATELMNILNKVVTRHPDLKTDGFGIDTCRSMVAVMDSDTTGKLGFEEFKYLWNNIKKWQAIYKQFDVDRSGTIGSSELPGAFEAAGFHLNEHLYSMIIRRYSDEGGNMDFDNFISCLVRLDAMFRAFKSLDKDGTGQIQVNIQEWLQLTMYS
(§2) Full length porcine calpain (156 nM), or papain (236 pM) was added to a solution of 100 mM NaCl, 50 mM HEPES, pH 7.6, 1 mM TCEP, 30 μM Suc-LLVY-AMC (SEQ ID NO: 8) substrate, and inhibitor (0.5 to 50 μM). Calpain reactions also contained CaCl2 (1 mM and 100 mM for porcine and rat respectively). Both substrate and inhibitors were dissolved in acetonitrile/DMSO (1:1) with the exception of E-64, dissolved in water. Organic solvent remained <2% in all reactions, and most often <1%. Reactions were carried out in microtiter 96-well plates, with 150 μL per well, 30° C., and product formation was monitored over time by fluorescence (Ex/Em 346/444 nm, with 420 nm cutoff filter). Kinetic values of kobs were determined via non-linear regression using one-phase association analysis and linear plots of 1/kobs vs. 1/[I] provided kinetic constants ki and KI.

For the next experiment, the target named is papain (Carica papaya (Papaya), UniProt P00784). The experiment can be described thus: biochemical. Format: biochemical.
Sequence of papain (P00784 134-345): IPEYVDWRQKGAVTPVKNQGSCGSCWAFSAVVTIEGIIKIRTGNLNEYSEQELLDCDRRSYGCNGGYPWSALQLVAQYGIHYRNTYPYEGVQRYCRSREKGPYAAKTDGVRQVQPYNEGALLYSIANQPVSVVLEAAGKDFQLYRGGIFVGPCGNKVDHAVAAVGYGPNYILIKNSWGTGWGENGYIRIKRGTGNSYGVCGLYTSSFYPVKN
Description: as §1, §2

Experiment [4] concerns Aβ-induced LTP impairment. The experiment can be described thus: LTP rescue test. The following applies: assessed at 650 nM.
Description: Residual levels of potentiation were averaged during the last 5 min of LTP.
For another experiment, the system named is APP/PS1 mice. The experiment can be described thus: Behavioral rescue assays (contextual fear memory, 2-day RAWM reference memory). Format: in vivo. An excerpt: APP/PS1-vehicle: n=15; APP/PS1-67: n=6; APP/PS1-30a: n=10; WT-vehicle: n=15; WT-67=5; WT-30a: n=8, APP/PS1-33: n=11; WT-33: n=8, APP/PS1-50: n=10; WT-50: n=8. P<0.05 in all transgenic groups treated with compound compared to their respective vehicle-treated transgenics.
APP/PS1-vehicle: n=17; APP/PS1-67: n=9; APP/PS1-30a: n=10; WT-vehicle: n=18; WT-67=9; WT-30a: n=9, APP/PS1-33: n=10; WT-33: n=9, APP/PS1-50: n=11; WT-50: n=9.
The ability of compounds to rescue the defects in associative and reference memory in 3 month old APP/PS1 animals was assessed. Capability of ameliorating the defects in contextual fear memory was tested via i.p. administration (FIG. 12). In the 2-day RAWM test, daily injections of the 67, 30a, 33 and 50 from the 2nd month of age were beneficial against the loss of contextual fear memory and reference memory.
Impact of chronic treatment on against memory loss in older APP/PS1 mice (7 months of age) with a more severe plaque load was also investigated. Compounds 67, 33 and 50 were beneficial against memory impairment following chronic administration (FIG. 13).
The ability of a prodrug to rescue the defects in associative and reference memory in 3 month old APP/PS1 animals was assessed. […] Thus, the esterification seems to improve PK but it spoils PD parameters. Compound 89 ameliorates both LTP and memory in 3 month old APP/PS1 mice (FIG. 15). Daily treatment with 89 from the age of 2 months until 3 months ameliorated the defect in LTP (A) contextual fear memory (B) and reference memory (C) in APP/PS1 mice. n=10 for all groups. P<0.05 in transgenics treated with compound compared to their respective vehicle-treated transgenics.

Setting [5] is: >1: inhibition not quantifiable at 1 μM.
Setting [6] is: ki/Ki calculated relative to E-64.
Setting [7] is: mean ± S.D. of triplicate experiments.
[8] abbreviates: APP/PS1 mice, daily treatment from 2 until 7 months.

For the molecule `CC(C)C[C@H](NC(=O)[C@H]1O[C@@H]1C(=O)O)C(=O)NCCCCNC(=O)CCCC[C@@H]1SC[C@@H]2NC(=O)N[C@@H]21` [Compound 27, (2S,3S)-3-((S)-4-methyl-1-oxo-1-(4-(5-((3aS,4S,6aR)-2-oxohexahydro-1H-thieno[3,4-d]imidazol-4-yl)pentanamido)butylamino)pentan-2-ylcarbamoyl)oxirane-2-carboxylic acid], the “covalent modification of Cal1 and CathB (anti-biotin immunoblotting)” value with Cal1cat vs CathB is “covalently modify both Cal1 and CathB”. For the same molecule, the pIC50 (in general, −log10 of the IC50, conventionally taken in molar units) on full-length human Cal1 [1] is 7.00. In addition, at full-length human Cal1 [2], the “Cal1 inhibition (in words)” value is reported as “shown to be a Cal1 inhibitor” and the pIC50 is 6.82.
For `CC(C)C[C@H](NC(=O)[C@@H]1O[C@H]1C(=O)O)C(=O)Nc1c(F)cccc1F` [Compound 23b, (2R,3R)-3-((S)-1-(2,6-difluorophenylamino)-4-methyl-1-oxopentan-2-ylcarbamoyl)oxirane-2-carboxylic acid], the pIC50 on full-length human Cal1 [1] (setting [5]) and on full-length human Cal1 [2] was less than 6.00 each time. At full-length human Cal1 [2], the “Cal1 inhibition (in words)” value is “not observed”.
For the molecule `C#Cc1ccc(-c2csc(NC(=O)[C@H](Cc3cscn3)NC(=O)[C@H]3O[C@@H]3C(=O)O)n2)cc1` [Compound 34, (2S,3S)-3-((S)-1-(4-(4-ethynylphenyl)thiazol-2-ylamino)-1-oxo-3-(thiazol-4-yl)propan-2-ylcarbamoyl)oxirane-2-carboxylic acid], in experiment [3] (Cal1 over papain, ki/Ki relative to E-64 set at 1.0), the “Relative Selectivity” value is 3.3. Besides, the pKi in experiment [3] (apparent equilibrium constant, full length Cal1, read-out: K1 Calpain1) was 5.46; on papain (apparent equilibrium constant, read-out: K1 Papain), 5.01. Besides, the “ki Calpain1” value in experiment [3] (inhibition rate, full length Cal1) amounted to 0.14 s⁻¹. The “relative selectivity for inhibition of Cal1 over papain (in words)” value in experiment [3] (ki/Ki as measure, compared with E-64) is on record as “Cal1 selectivity”. For the same molecule, the “rel Calpain1” value in experiment [3] (setting [6]) is listed as 1.3. For the same molecule, in experiment [3] (setting [7]), the “10^−4 × ki/Ki Calpain1” value worked out at 3.89 ± 0.41. On full-length human Cal1 [1], the pIC50 was 7.00. Moreover, on papain (inhibition rate), the “ki Papain” value came to 21.6 s⁻¹. In addition, the “rel Papain” value on papain (setting [6]) was 0.40. The “10^−5 × ki/Ki Papain” value at papain (setting [7]) turned out to be 22.3 ± 0.24.
For `CC(C)C[C@H](NC(=O)[C@H]1O[C@@H]1C(=O)O)C(=O)NCCCCNC(=O)CCCCC1CCSS1` (stereo partly drawn) [Compound 67], in experiment [4], the “potency for LTP rescue compared with E64” value is listed as “surpassed E64”. Further, the reference memory result is given as “beneficial” in the experiment on APP/PS1 mice (3 month old APP/PS1 mice, 2-day RAWM, daily from 2 months) and “not significant” with APP/PS1 mice (setting [8]). The contextual fear memory result in the experiment with APP/PS1 mice (3 month old APP/PS1 mice, daily i.p. from 2 months) is on record as “beneficial”; with APP/PS1 mice (setting [8]) it was “ameliorated”. For the same molecule, the memory impairment result in the experiment with APP/PS1 mice (7 month old APP/PS1 mice, chronic administration) was “beneficial”. Further, the pIC50 on full-length human Cal1 [2] was 6.82.
Regarding `Cc1cc(C)c(-n2cc(CNC(=O)[C@H](Cc3cscn3)NC(=O)[C@H]3O[C@@H]3C(=O)O)nn2)c(C)c1` [Compound 58, (2S,3S)-3-((S)-1-((1-mesityl-1H-1,2,3-triazol-4-yl)methylamino)-1-oxo-3-(thiazol-4-yl)propan-2-ylcarbamoyl)oxirane-2-carboxylic acid], the pIC50 against full-length human Cal1 [1] (setting [5]) and on full-length human Cal1 [2] was less than 6.00 throughout. Moreover, the “Cal1 inhibition (in words)” value at full-length human Cal1 [2] is recorded as “relatively high IC50 values”.
`O=C(NCc1cn(-c2ccc(Br)cc2)nn1)[C@H](Cc1cscn1)NC(=O)[C@H]1O[C@@H]1C(=O)O` [Compound 55, (2S,3S)-3-((S)-1-((1-(4-bromophenyl)-1H-1,2,3-triazol-4-yl)methylamino)-1-oxo-3-(thiazol-4-yl)propan-2-ylcarbamoyl)oxirane-2-carboxylic acid]: in experiment [4], the “potency for LTP rescue compared with E64” value was “did not surpass”. Besides, on full-length human Cal1 [2], the “Cal1 inhibition (in words)” value was “potent activity” and the negative-log IC50 (pIC50) was 7.40.
`NS(=O)(=O)c1ccc(-n2cc(CNC(=O)[C@H](Cc3cscn3)NC(=O)[C@H]3O[C@@H]3C(=O)O)nn2)cc1` [Compound 53, (2S,3S)-3-((S)-1-oxo-1-((1-(4-sulfamoylphenyl)-1H-1,2,3-triazol-4-yl)methylamino)-3-(thiazol-4-yl)propan-2-ylcarbamoyl)oxirane-2-carboxylic acid] showed a pIC50 against full-length human Cal1 [1] (setting [5]) of less than 6.00. Besides, on full-length human Cal1 [2], the “Cal1 inhibition (in words)” value is “relatively high IC50 values” and the pIC50 is less than 6.00.
Regarding `O=C(O)[C@H]1O[C@@H]1C(=O)NC1(C(=O)NCCCCNS(=O)(=O)c2ccc(F)cc2)CCCCC1` [Compound 66], the “potency for LTP rescue compared with E64” value in experiment [4] is given as “surpassed E64”. Also, the pIC50 at full-length human Cal1 [2] is 6.00.
As to `O=C(NCc1cn(-c2c(F)cccc2F)nn1)[C@H](Cc1cscn1)NC(=O)[C@H]1O[C@@H]1C(=O)O` [Compound 57, (2S,3S)-3-((S)-1-((1-(2,6-difluorophenyl)-1H-1,2,3-triazol-4-yl)methylamino)-1-oxo-3-(thiazol-4-yl)propan-2-ylcarbamoyl)oxirane-2-carboxylic acid], on full-length human Cal1 [1] (setting [5]), the pIC50 is less than 6.00. Besides, on full-length human Cal1 [2], the “Cal1 inhibition (in words)” value is “relatively high IC50 values” and the pIC50 is less than 6.00.
